Data: patent publication US20250092065A1, “2-(INDAZOL-5-YL)-6-(PIPERIDIN-4-YL)-1,7-NAPHTHYRIDINE DERIVATIVES AND RELATED COMPOUNDS AS MODULATORS FOR SPLICING NUCLEIC ACIDS AND FOR THE TREATMENT OF PROLIFERATIVE DISEASES” (REMIX THERAPEUTICS INC., priority 2022, published 2025)
Like-named read-outs stand apart in the source and are kept apart here.

Assays:
SMN2 mRNA = assay: RT-qPCR splicing assay, SMN2 mRNA; type: cell-based, human; details: Homo sapiens, canonical junction qPCR panel, Table 4; read-out: SMN2 IC50 (decrease in CJ mRNA levels)
Procedure, shortened: (§1)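 A673 or K562 cells treated 24 h at 37 °C with an 11-point 3-fold dilution series (top 10 uM, DMSO ≤0.25%). Lysates went directly to one-step RT-qPCR quantifying canonical (CJ) and alternative-exon (AJ) junctions, normalized to GAPDH, GUSB or PPIA. Values from ΔΔCt versus DMSO, RQ = 2^(−ΔΔCt), expressed as percentage response.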

MYB mRNA = assay: RT-qPCR splicing assay, MYB mRNA canonical (CJ) and alternative (AJ) junction; type: cell-based, human; details: Homo sapiens; for AC50: MYB alternative junction mRNA, read-out: MYB AJ (increase in AJ mRNA, AC50)
Procedure, shortened: as §1

HTT = assay: HiBiT protein abundance assay, HTT (K562 HiBiT knock-in); type: cell-based, human; details: HiBiT knock-in K562 cells, 24 hours, top dose 10 μM
Procedure, shortened: (§2)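 Endogenously HiBiT-tagged K562 lines were treated for 24 h at 37 °C with 10-point 3-fold dilutions (top 10 μM final, DMSO ≤0.25%). Lytic LgBiT complementation luminescence was normalized between unmodified K562 (PC) and DMSO-treated tagged cells (NC); IC50 was interpolated at 50% from a four-parameter logistic fit.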

K562 cells = assay: Cell Titer Glo 2.0 cell viability (toxicity) assay, K562; details: 500 cells/well, 72 hours
Target C = assay: HiBiT protein abundance assay, Target C (K562 HiBiT knock-in); type: cell-based, human; details: HiBiT knock-in K562 cells, 24 hours, top dose 10 μM
Procedure, shortened: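 K562 HiBiT knock-in cells (10000/well) were treated 24 h at 37° C with a 10-point 3-fold dilution series (top 10 μM final, ≤0.25% DMSO). HiBiT luminescence was read after lytic LgBiT detection. Percent response used unmodified K562 and DMSO-treated knock-in controls, and IC50 came from a four-parameter fit at 50% of untreated.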

MYB = assay: HiBiT protein abundance assay, MYB (K562 HiBiT knock-in); type: cell-based, human; details: HiBiT knock-in K562 cells, 24 hours, top dose 10 μM
Procedure, shortened: as §2

[1] = MYB canonical junction mRNA, RT-qPCR, read-out: MYB CJ (decrease in CJ mRNA levels, IC50)
[2] = canonical junction qPCR panel, Table 4, read-out: MYB IC50 (decrease in CJ mRNA levels)

Cc1c(O)c(-c2ncc3nc(N4CCNCC4)ccc3n2)cc2cn(C)nc12 [Compound 338, 2,7-dimethyl-5-[6-(piperazin-1-yl)pyrido[3,2-d]pyrimidin-2-yl]indazol-6-ol] gave an IC50 (SMN2 mRNA) of under 100 nM, an AC50 (MYB mRNA; RT-qPCR) of 100 to 1000 nM and an IC50 (MYB mRNA; [1]) of under 100 nM. The IC50 (MYB mRNA; [2]) was under 100 nM, the IC50 (HTT) was 100 to 1000 nM and the “Effect of Exemplary Compounds on Cell Viability, K562” value (from here on “Effect of Exemplary Compounds”) (K562 cells) was “B (B represents 100-1000 nM)”. The IC50 (Target C) was 100 to 1000 nM and the IC50 (MYB) was under 100 nM.

Work on Cc1nc2cc(O)c(-c3ccc4nc(N5CCC(NC(C)(C)C)C5)ccc4n3)cc2n1C (stereo not shown) [Compound 339, 6-{6-[3-(tert-butylamino)pyrrolidin-1-yl]-1,5-naphthyridin-2-yl}-1,2-dimethyl-1,3-benzodiazol-5-ol] yielded an IC50 (SMN2 mRNA) of 100 to 1000 nM, an AC50 (MYB mRNA; RT-qPCR) of 100 to 1000 nM and an IC50 (MYB mRNA; [1]) of 100 to 1000 nM. The IC50 (MYB mRNA; [2]) was 100 to 1000 nM, the IC50 (HTT) was 100 to 1000 nM and the “Effect of Exemplary Compounds” value (K562 cells) was “B (B represents 100-1000 nM)”. It also gave an IC50 (Target C) of 100 to 1000 nM and an IC50 (MYB) of 100 to 1000 nM.

For Cc1nc2cc(-c3ccc4nc(N5CCC(NC(C)(C)C)C5)ccc4n3)c(O)cc2n1C (stereo not shown) [Compound 340, 6-{6-[3-(tert-butylamino)pyrrolidin-1-yl]-1,5-naphthyridin-2-yl}-2,3-dimethyl-1,3-benzodiazol-5-ol], the IC50 (SMN2 mRNA) was 100 to 1000 nM, the AC50 (MYB mRNA; RT-qPCR) was 100 to 1000 nM and the IC50 (MYB mRNA; [1]) was 100 to 1000 nM. The IC50 (MYB mRNA; [2]) was 100 to 1000 nM, the IC50 (HTT) was 100 to 1000 nM and the “Effect of Exemplary Compounds” value (K562 cells) was “A (A represents <100 nM)”. It also gave an IC50 (Target C) of 100 to 1000 nM and an IC50 (MYB) of 100 to 1000 nM.

For Cn1cc2cc(-c3ccc4nc(N5CCC(NC67CC(O)(C6)C7)C5)ccc4n3)c(O)cc2n1 (stereo not shown) [Compound 341, 5-{6-[3-({3-hydroxybicyclo[1.1.1]pentan-1-yl}amino)pyrrolidin-1-yl]-1,5-naphthyridin-2-yl}-2-methylindazol-6-ol], the IC50 (SMN2 mRNA) was under 100 nM, the AC50 (MYB mRNA; RT-qPCR) was 100 to 1000 nM and the IC50 (MYB mRNA; [1]) was 100 to 1000 nM. For the same compound, the IC50 (MYB mRNA; [2]) was 100 to 1000 nM, the IC50 (HTT) was 100 to 1000 nM and the “Effect of Exemplary Compounds” value (K562 cells) was “B (B represents 100-1000 nM)”. For the same compound, the IC50 (Target C) was under 100 nM and the IC50 (MYB) was 100 to 1000 nM.

With Cc1c(O)c(-c2ncc3nc(N4CCC5(CCN5)C4)ccc3n2)cc2cn(C)nc12 (stereo not shown) [Compound 342, 5-(6-{1,6-diazaspiro[3.4]octan-6-yl}pyrido[3,2-d]pyrimidin-2-yl)-2,7-dimethylindazol-6-ol] the IC50 (SMN2 mRNA) was under 100 nM, the AC50 (MYB mRNA; RT-qPCR) was 100 to 1000 nM and the IC50 (MYB mRNA; [1]) was 100 to 1000 nM. The IC50 (MYB mRNA; [2]) was 100 to 1000 nM, the IC50 (HTT) was 100 to 1000 nM and the “Effect of Exemplary Compounds” value (K562 cells) was “B (B represents 100-1000 nM)”. The IC50 (Target C) was 100 to 1000 nM and the IC50 (MYB) was 100 to 1000 nM.

Cc1cc2nc(-c3ccc4nc(N5CCC(NC(C)(C)C)C5)ccc4n3)cn2c(C)n1 (stereo not shown) [Compound 344, N-tert-butyl-1-(6-{5,7-dimethylimidazo[1,2-c]pyrimidin-2-yl}-1,5-naphthyridin-2-yl)pyrrolidin-3-amine] showed an IC50 (SMN2 mRNA) of under 100 nM, an AC50 (MYB mRNA; RT-qPCR) of 1000 to 10000 nM and an IC50 (MYB mRNA; [1]) of 1000 to 10000 nM. The IC50 (MYB mRNA; [2]) was 1000 to 10000 nM, the IC50 (HTT) was 1000 to 10000 nM and the “Effect of Exemplary Compounds” value (K562 cells) was “D (D represents greater than 10 μM in K562 cells)”. The IC50 (Target C) was 1000 to 10000 nM and the IC50 (MYB) was 1000 to 10000 nM.

In the case of CCc1nc2cc(O)c(-c3ccc4nc(N5CCC(NC(C)(C)C)C5)ccc4n3)cc2o1 (stereo not shown) [Compound 346, 6-{6-[3-(tert-butylamino)pyrrolidin-1-yl]-1,5-naphthyridin-2-yl}-2-ethyl-1,3-benzoxazol-5-ol], the IC50 (SMN2 mRNA) is reported as 100 to 1000 nM, the AC50 (MYB mRNA; RT-qPCR) is reported as 1000 to 10000 nM and the IC50 (MYB mRNA; [1]) is reported as 1000 to 10000 nM. The IC50 (MYB mRNA; [2]) was 1000 to 10000 nM, the IC50 (HTT) was 1000 to 10000 nM and the “Effect of Exemplary Compounds” value (K562 cells) was “C (C represents 1000-9999 nM)”. It also gave an IC50 (Target C) of 1000 to 10000 nM and an IC50 (MYB) of 1000 to 10000 nM.

For Cc1nc2cc(O)c(-c3ccc4nc(N5CC[C@H](N[C@H]6C[C@H](F)C6)C5)ccc4n3)cc2o1 [Compound 350, 2-methyl-6-{6-[(3S)-3-{[(1r,3r)-3-fluorocyclobutyl]amino}pyrrolidin-1-yl]-1,5-naphthyridin-2-yl}-1,3-benzoxazol-5-ol], the IC50 (SMN2 mRNA) was under 100 nM, the AC50 (MYB mRNA; RT-qPCR) was 100 to 1000 nM and the IC50 (MYB mRNA; [1]) was 100 to 1000 nM. The IC50 (MYB mRNA; [2]) was 100 to 1000 nM, the IC50 (HTT) was under 100 nM and the “Effect of Exemplary Compounds” value (K562 cells) was “B (B represents 100-1000 nM)”. It also gave an IC50 (Target C) of 100 to 1000 nM and an IC50 (MYB) of 100 to 1000 nM.
